Experimental data from patent publication US11142527B2, “Dihydropyrimidine compounds and uses thereof in medicine” (SUNSHINE LAKE PHARMA CO., LTD., priority 2017, dated 2021).

Assays:
HBV = assay: Test of anti HBV activity in vitro (viral DNA by qPCR); format: cell-based; details: Hepatitis B virus; HepG2.2.15 cells, viral DNA in cell culture supernatant by qPCR; read-out: EC50 values of the compound of the invention on viral replication
Method in brief: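 HepG2.2.15 cells (integrated HBV genome) were grown to confluence, then treated with compound in 4-fold dilutions from 4 μM final (0.5% DMSO). Secreted viral DNA in supernatant was quantified by SYBR qPCR against an HBV plasmid standard curve; EC50 from four-parameter nonlinear regression of concentration versus copy number.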

[1] = Cytotoxicity test with CellTiter Glo; format: cell-based; details: human, HepG2.2.15 cells, highest concentration 150 μM, read-out: CC50 values of the compounds of the invention
Method in brief: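 HepG2.2.15 cells (3000/well) exposed to serially diluted compound, highest final concentration 150 μM, for 4 days at 37 °C. Viability read by CellTiter Glo, cytotoxicity % taken relative to DMSO controls, and CC50 obtained by four-parameter nonlinear regression.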

COC(=O)C1=C(CN2CCN3C(=O)N(c4ccc(Oc5ccc(C(C)(C)O)cc5)cc4)C[C@@H]3C2)NC(c2nccs2)=N[C@H]1c1ccc(F)cc1Cl [Example 100, (R)-methyl 4-(2-chloro-4-fluorophenyl)-6-(((S)-2-(4-(4-(2-hydroxyprop-2-yl)phenoxy)phenyl)-3-oxohexahydroimidazo[1,5-a]pyrazin-7(1H)-yl)methyl)-2-(thiazol-2-yl)-1,4-dihydropyrimidine-5-carboxylate]
EC50 (HBV): 16.8 nM | CC50 at 4 days [1]: > 150 µM

COC(=O)C1=C(CN2CCN3C(=O)N(Cc4ccc(Oc5ccc(C#N)cc5)cc4)C[C@@H]3C2)NC(c2nccs2)=N[C@H]1c1ccc(F)cc1Cl [Example 102, (R)-methyl 4-(2-chloro-4-fluorophenyl)-6-(((S)-2-(4-(4-cyanophenoxy)benzyl)-3-oxohexahydroimidazo[1,5-a]pyrazin-7(1H)-yl)methyl)-2-(thiazol-2-yl)-1,4-dihydropyrimidine-5-carboxylate]
EC50 (HBV): 4.2 nM | CC50 at 4 days [1]: > 150 µM

COC(=O)C1=C(CN2CCN3C(=O)N(c4ccc(Oc5ccc(OC)cc5)cc4)C[C@@H]3C2)NC(c2nccs2)=N[C@H]1c1ccc(F)cc1Cl [Example 103, (R)-methyl 4-(2-chloro-4-fluorophenyl)-6-(((S)-2-(4-(4-methoxyphenoxy)phenyl)-3-oxohexahydroimidazo[1,5-a]pyrazin-7(1H)-yl)methyl)-2-me (thiazol-2-yl)-1,4-dihydropyrimidine-5-carboxylate]
EC50 (HBV): 19.4 nM | CC50 at 4 days [1]: > 150 µM

COC(=O)C1=C(CN2CCN3C(=O)N(c4ccc(Sc5ccc(OC(C)C)cc5)cc4)C[C@@H]3C2)NC(c2nccs2)=N[C@H]1c1ccc(F)cc1Cl [Example 105, (R)-methyl 4-(2-chloro-4-fluorophenyl)-6-(((S)-2-(4-((4-isopropoxyphenyl)thio)phenyl)-3-oxohexahydroimidazo[1,5-a]pyrazin-7(1H)-yl)methyl)-2-(thiazol-2-yl)-1,4-dihydropyrimidine-5-carboxylate]
EC50 (HBV): 29 nM | CC50 at 4 days [1]: > 150 µM

COC(=O)C1=C(CN2CCN3C(=O)N(c4ccc(Oc5ccc(S(C)(=O)=O)cc5)cc4)C[C@@H]3C2)NC(c2nccs2)=N[C@H]1c1ccc(F)cc1Cl [Example 106, (R)-methyl 4-(2-chloro-4-fluorophenyl)-6-(((S)-2-(4-(4-(methylsulfonyl)phenoxy)phenyl)-3-oxohexahydroimidazo[1,5-a]pyrazin-7(1H)-yl)methyl)-2-(thiazol-2-yl)-1,4-dihydropyrimidine-5-carboxylate]
EC50 (HBV): 6.2 nM | CC50 at 4 days [1]: > 150 µM

COC(=O)C1=C(CN2CCN3C(=O)N(c4ccc(-c5nc(C6CC6)c[nH]5)cc4)C[C@@H]3C2)NC(c2nccs2)=N[C@H]1c1ccc(F)cc1Cl [Example 111, (R)-methyl 4-(2-chloro-4-fluorophenyl)-6-(((S)-2-(4-(4-cyclopropyl-1H-imidazol-2-yl)phenyl)-3-oxohexahydroimidazo[1,5-a]pyrazin-7(1H)-yl)methyl)-2-(thiazol-2-yl)-1,4-dihydropyrimidine-5-carboxylate]
EC50 (HBV): 7.5 nM | CC50 at 4 days [1]: > 150 µM

COC(=O)C1=C(CN2CCN3C(=O)N(c4ccc(OC5CCC(C(=O)O)CC5)cc4F)C[C@@H]3C2)NC(c2nccs2)=N[C@H]1c1ccc(F)cc1Cl (stereo partly drawn) [Example 112, 4-(4-((S)-7-(((R)-6-(2-chloro-4-fluorophenyl)-5-(methoxycarbonyl)-2-(thiazol-2-yl)-3,6-dihydropyrimidin-4-yl)methyl)-3-oxohexahydroimidazo[1,5-a]pyrazin-2(3H)-yl)-3-fluorophenoxy)cyclohexane carboxylic acid]
EC50 (HBV): 15.4 nM | CC50 at 4 days [1]: > 150 µM

COC(=O)C1=C(CN2CCN3C(=O)N(c4ccc(F)c(-c5ccc(C(=O)O)cc5)c4)C[C@@H]3C2)NC(c2nccs2)=N[C@H]1c1ccc(F)cc1Cl [Example 114, 5′-((S)-7-(((R)-6-(2-chloro-4-fluorophenyl)-5-(methoxycarbonyl)-2-(thiazol-2-yl)-3,6-dihydropyrimidin-4-yl)methyl)-3-oxohexahydroimidazo[1,5-a]pyrazin-2(3H)-yl)-2′-fluoro-[1,1′-biphenyl]-4-carboxylic acid]
EC50 (HBV): 27.7 nM | CC50 at 4 days [1]: > 150 µM

COC(=O)C1=C(CN2CCN3C(=O)N(c4ccc(-c5cc(C(=O)O)ccc5F)cc4)C[C@@H]3C2)NC(c2nccs2)=N[C@H]1c1ccc(F)cc1Cl [Example 116]
EC50 (HBV): 19.9 nM | CC50 at 4 days [1]: > 150 µM

COC(=O)C1=C(CN2CCN3C(=O)N(c4cc(F)cc(-c5ccc(C(=O)O)cc5)c4)C[C@@H]3C2)NC(c2nccs2)=N[C@H]1c1ccc(F)cc1Cl [Example 117, 3′-((S)-7-(((R)-6-(2-chloro-4-fluorophenyl)-5-(methoxycarbonyl)-2-(thiazol-2-yl)-3,6-dihydroprimidin-4-yl)methyl)-3-oxohexahydroimidazo[1,5-a]pyrazin-2(3H)-yl)-5′-fluoro-[1,1′-biphenyl]-4-carboxylic acid]
EC50 (HBV): 18.8 nM | CC50 at 4 days [1]: > 150 µM

COC(=O)C1=C(CN2CCN3C(=O)N(c4cc(F)cc(-c5ccc(C(=O)O)cc5F)c4)C[C@@H]3C2)NC(c2nccs2)=N[C@H]1c1ccc(F)cc1Cl [Example 118, 3′-((S)-7-(((R)-6-(2-chloro-4-fluorophenyl)-5-(methoxycarbonyl)-2-(thiazol-2-yl)-3,6-dihydropyrimidin-4-yl)methyl)-3-oxohexahydroimidazo[1,5-a]pyrazin-2(3H)-yl)-2,5′-difluoro-[1,1′-biphenyl]-4-carboxylic acid]
EC50 (HBV): 8.9 nM | CC50 at 4 days [1]: > 150 µM

COC(=O)C1=C(CN2CCN3C(=O)N(c4cc(F)cc(-c5ccc(C(=O)O)c(F)c5)c4)C[C@@H]3C2)NC(c2nccs2)=N[C@H]1c1ccc(F)cc1Cl [Example 119]
EC50 (HBV): 15.6 nM | CC50 at 4 days [1]: > 150 µM

COC(=O)C1=C(CN2CCN3C(=O)N(c4ccc(-c5ccc(C(=O)O)cc5)nc4)C[C@@H]3C2)NC(c2nccs2)=N[C@H]1c1ccc(F)cc1Cl [Example 122, 4-(5-((S)-7-(((R)-6-(2-chloro-4-fluorophenyl)-5-(methoxycarbonyl)-2-(thiazol-2-yl)-3,6-dihydropyrimidin-4-yl)methyl)-3-oxohexahydroimidazo[1,5-a]pyrazin-2(3H)-yl)pyridin-2-yl)benzoic acid]
EC50 (HBV): 45.6 nM | CC50 at 4 days [1]: > 150 µM

COC(=O)C1=C(CN2CCN3C(=O)N(c4ccnc(-c5ccc(C(=O)O)cc5)c4)C[C@@H]3C2)NC(c2nccs2)=N[C@H]1c1ccc(F)cc1Cl [Example 123, 4-(4-((S)-7-(((R)-6-(2-chloro-4-fluorophenyl)-5-(methoxycarbonyl)-2-(thiazol-2-yl)-3,6-dihydropyrimidin-4-yl)methyl)-3-oxohexahydroimidazo[1,5-a]pyrazin-2(3H)-yl)pyridin-2-yl)benzoic acid]
EC50 (HBV): 37.9 nM | CC50 at 4 days [1]: > 150 µM

COC(=O)C1=C(CN2CCN3C(=O)N(c4ccc(-c5ccc(C(C)(C)C(=O)O)cc5)nc4)C[C@@H]3C2)NC(c2nccs2)=N[C@H]1c1ccc(F)cc1Cl [Example 125, 2-(4-(5-((S)-7-(((R)-6-(2-chloro-4-fluorophenyl)-5-(methoxycarbonyl)-2-(thiazol-2-yl)-3,6-dihydropyrimidin-4-yl)methyl)-3-oxohexahydroimidazo[1,5-a]pyrazin-2(3H)-yl)pyridin-2-yl)phenyl)-2-methylpropanoic acid]
EC50 (HBV): 21 nM | CC50 at 4 days [1]: > 150 µM
